Literature values, collected in patent US9206100B2, “Route to synthetic analogues of Rocaglamide and Aglafoline using cascade transformations initiated by oxy-cope rearrangement of bis-alkynes” (The Florida State University Research Foundation, Inc., priority 2010, dated 2015).

System: various human leukemia cell lines
Conditions: through the intrinsic death pathway; human leukemia cell lines and ALL, CML and AML cells freshly isolated from patients

Compound: COc1ccc([C@@]23Oc4cc(OC)cc(OC)c4[C@]2(O)[C@H](O)[C@H](C(=O)N(C)C)[C@H]3c2ccccc2)cc1 [Rocaglamide]
- apoptosis induction: induces apoptosis
